The source of these data is patent US20160137714A1 (Thrasos Innovation, Inc., priority 2014, published 2016).

SMILES strings stand for the structures. Positions of bridges follow the written chain, without caps; N, C: chain ends. Non-standard residues stand in square brackets, D forms with d. Residues, ends and D or L forms follow the SMILES beside them. NMeR = CN[C@@H](CCCNC(=N)N)C(=O)O

The nature of this data set: Ex-vivo plasma stability. It is filed as in vitro ADME, mouse or rat. Particulars: for remaining at 1 h / remaining at 2 h: fresh plasma 37° C., 1 μM; for remaining at 1 h: 60 min, read-out: Percent remaining 60 min; for remaining at 2 h: 120 min, read-out: Percent remaining 120 min; for stability toward plasma proteolytic cleavage: versus THR-123, rat plasma (FIGS. 3 and 4). The method, then:
Test article is added to fresh mouse or rat plasma at a final in-vial concentration of 1 μM. The peptide is incubated in a water bath at 37° C. over a time course that included the following points (in minutes): 0, 15, 30, 60, 120, 240, and 1440. After the incubation time is completed, a 50 μL aliquot of plasma is removed and proteins are precipitated using a solution containing internal standard (THR-123 at 150 ng/mL) in methanol with 0.5% acetic acid (v/v). The samples are centrifuged at 13,000 RPM for 5 minutes, and a 100 μL aliquot of supernatant is removed and transferred to a 96-well plate containing 200 μL of reconstitution solution (Water/MeOH/Acetic Acid/TFA, 60/40/0.2/0.05, v/v/v/v). A calibration curve and quality control (QC) samples are prepared in parallel in the same manner as the incubation samples. The calibration range for this assay is from 0.02 to 2.0 μM in rat or mouse plasma. The extracted calibrants, QC, and incubation samples are injected onto an AB SCIEX API 2000 LC-MS/MS system. Chromatographic separation is performed using a reversed-phase C18 HPLC column (Ace-3 C18, 30×2.1 mm, 3 μm). The solvent system consists of Milli-Q water, acetonitrile and formic acid. Analyte and internal standard are detected using the multiple reaction monitoring (MRM) scan mode. Calibration curves are generated by using a weighted (1/concentration) quadratic regression analysis of the peak area ratios (analyte/internal standard) versus the nominal concentration of the calibration standards. The concentration of the analyte in the incubation samples is determined by back-calculating the peak area ratios obtained using the quadratic regression.

Turning to `CC(C)C[C@@H]1NC(=O)[C@H](C(C)C)NC(=O)[C@H](CO)NC(=O)[C@H](CO)NC(=O)[C@H](CO)NC(=O)[C@H](CC(=O)O)NC(=O)[C@H](CC(=O)O)NC(=O)[C@H](Cc2ccc(O)cc2)NC(=O)[C@H](Cc2ccc(O)cc2)NC(=O)[C@@H](N)CSSC[C@@H](C(=O)N[C@@H](CCCCN)C(=O)N[C@@H](CCCCN)C(=O)N[C@@H](Cc2ccc(O)cc2)C(=O)N[C@@H](CCCNC(=N)N)C(=O)N[C@@H](CO)C(=O)O)NC1=O` [GPR-267, Cys-Tyr-Tyr-Asp-Asp-Ser-Ser-Ser-Val-Leu-Cys-Lys-Lys-Tyr-Arg-Ser] (H-CYYDDSSSVLCKKYRS-OH; disulfide 1-11), the amount remaining (usually what is left of the initial amount, in per cent) at 1 h is 1.5% and the amount remaining at 2 h stood at 0%.

Consider `CC(C)C[C@@H]1NC(=O)[C@H](C(C)C)NC(=O)[C@H](CO)NC(=O)[C@H](CO)NC(=O)[C@H](CO)NC(=O)[C@H](CC(N)=O)NC(=O)[C@H](CC(=O)O)NC(=O)[C@H](Cc2ccc(O)cc2)NC(=O)[C@H](Cc2ccc(O)cc2)NC(=O)[C@@H](N)CSSC[C@@H](C(=O)N[C@@H](CCCCN)C(=O)N[C@@H](CCCCN)C(=O)N[C@H](Cc2ccc(O)cc2)C(=O)N[C@@H](CCCNC(=N)N)C(=O)N[C@@H](CO)C(=O)O)NC1=O` [GPR-296, Cys-Tyr-Tyr-Asp-Asn-Ser-Ser-Ser-Val-Leu-Cys-Lys-Lys-D-tyr-Arg-Ser] (H-CYYDNSSSVLCKK[dY]RS-OH; disulfide 1-11), for which the share remaining at 1 h is 97.5% and the share remaining at 2 h was 86.4%.

As to `CC(C)C[C@@H]1NC(=O)[C@H](C(C)C)NC(=O)[C@H](CC(N)=O)NC(=O)[C@H](CO)NC(=O)[C@H](CO)NC(=O)[C@H](CC(=O)O)NC(=O)[C@H](CC(=O)O)NC(=O)[C@H](Cc2ccccc2)NC(=O)[C@H](Cc2ccc(O)cc2)NC(=O)[C@@H](N)CSSC[C@@H](C(=O)N[C@@H](CCCCN)C(=O)N[C@@H](CCCCN)C(=O)N[C@@H](Cc2ccc(O)cc2)C(=O)N[C@H](CCCNC(=N)N)C(=O)N[C@@H](CO)C(=O)O)NC1=O` [GPR-389, Cys-Tyr-Phe-Asp-Asp-Ser-Ser-Asn-Val-Leu-Cys-Lys-Lys-Tyr-D-arg-Ser] (H-CYFDDSSNVLCKKY[dR]S-OH; disulfide 1-11), the amount remaining at 1 h turned out to be 58.5%, the fraction remaining at 2 h came out at 46.1% and the “stability toward plasma proteolytic cleavage” value was “enhanced”.

Consider `CC(C)C[C@@H]1NC(=O)[C@H](C(C)C)NC(=O)[C@H](CO)NC(=O)[C@H](CO)NC(=O)[C@H](CO)NC(=O)[C@H](CC(N)=O)NC(=O)[C@H](CC(=O)O)NC(=O)[C@H](Cc2ccc(O)cc2)NC(=O)[C@H](Cc2ccc(O)cc2)NC(=O)[C@@H](N)CSSC[C@@H](C(=O)N[C@@H](CCCCN)C(=O)N[C@@H](CCCCN)C(=O)N[C@@H](Cc2ccc(O)cc2)C(=O)N[C@@H](CCCNC(=N)N)C(=O)N[C@@H](CO)C(=O)O)NC1=O` [GPR-269, Cys-Tyr-Tyr-Asp-Asn-Ser-Ser-Ser-Val-Leu-Cys-Lys-Lys-Tyr-Arg-Ser] (H-CYYDNSSSVLCKKYRS-OH; disulfide 1-11), for which the fraction remaining at 1 h is 9.9% and the fraction remaining at 2 h came to 6.8%.

On to `CC(C)C[C@@H]1NC(=O)[C@H](C(C)C)NC(=O)[C@H](CC(N)=O)NC(=O)[C@H](CO)NC(=O)[C@H](CO)NC(=O)[C@H](CC(=O)O)NC(=O)[C@H](CC(=O)O)NC(=O)[C@H](Cc2ccccc2)NC(=O)[C@H](Cc2ccc(O)cc2)NC(=O)[C@@H](N)CSSC[C@@H](C(=O)N[C@@H](CCCCN)C(=O)N[C@@H](CCCCN)C(=O)N[C@@H](Cc2ccc(O)cc2)C(=O)N(C)[C@@H](CCCNC(=N)N)C(=O)N[C@@H](CO)C(=O)O)NC1=O` [GPR-396, Cys-Tyr-Phe-Asp-Asp-Ser-Ser-Asn-Val-Leu-Cys-Lys-Lys-Tyr-(Na-Me)Arg-Ser] (H-CYFDDSSNVLCKKY[NMeR]S-OH; disulfide 1-11), for which the amount remaining at 1 h amounted to 91%, the fraction remaining at 2 h stood at 82.4% and the “stability toward plasma proteolytic cleavage” value is “enhanced”.

Consider `CC(C)C[C@@H]1NC(=O)[C@H](C(C)C)NC(=O)[C@H](CO)NC(=O)[C@H](CO)NC(=O)[C@H](CO)NC(=O)[C@H](CC(N)=O)NC(=O)[C@H](CC(=O)O)NC(=O)[C@H](Cc2ccc(O)cc2)NC(=O)[C@H](Cc2ccc(O)cc2)NC(=O)[C@@H](N)CSSC[C@@H](C(=O)N[C@@H](CCCCN)C(=O)N[C@@H](CCCNC(=N)N)C(=O)N[C@@H](Cc2ccc(O)cc2)C(=O)N[C@@H](CCCNC(=N)N)C(=O)N[C@@H](CO)C(=O)O)NC1=O` [GPR-259, Cys-Tyr-Tyr-Asp-Asn-Ser-Ser-Ser-Val-Leu-Cys-Lys-Arg-Tyr-Arg-Ser] (H-CYYDNSSSVLCKRYRS-OH; disulfide 1-11), for which the share remaining at 1 h is 4% and the share remaining at 2 h was determined as 2.5%.

For the compound `CC(C)C[C@@H]1NC(=O)[C@H](C(C)C)NC(=O)[C@H](CO)NC(=O)[C@H](CO)NC(=O)[C@H](CO)NC(=O)[C@H](CC(N)=O)NC(=O)[C@H](CC(=O)O)NC(=O)[C@H](Cc2ccc(O)cc2)NC(=O)[C@H](Cc2ccc(O)cc2)NC(=O)[C@@H](N)CSSC[C@@H](C(=O)N[C@@H](CCCCN)C(=O)N[C@@H](CCCNC(=N)N)C(=O)N[C@@H](Cc2ccc(O)cc2)C(=O)N(C)[C@@H](CCCNC(=N)N)C(=O)N[C@@H](CO)C(=O)O)NC1=O` [GPR-398, Cys-Tyr-Tyr-Asp-Asn-Ser-Ser-Ser-Val-Leu-Cys-Lys-Arg-Tyr-(Nα-Me)Arg-Ser] (H-CYYDNSSSVLCKRY[NMeR]S-OH; disulfide 1-11), the share remaining at 1 h is 79.2% and the amount remaining at 2 h worked out at 68.1%.

With `CC(C)C[C@@H]1NC(=O)[C@H](C(C)C)NC(=O)[C@H](CO)NC(=O)[C@H](CO)NC(=O)[C@H](CO)NC(=O)[C@H](CC(N)=O)NC(=O)[C@H](CC(=O)O)NC(=O)[C@H](Cc2ccc(O)cc2)NC(=O)[C@H](Cc2ccc(O)cc2)NC(=O)[C@@H](N)CSSC[C@@H](C(=O)N[C@@H](CCCCN)C(=O)N[C@@H](CCCNC(=N)N)C(=O)N[C@H](Cc2ccc(O)cc2)C(=O)N[C@@H](CCCNC(=N)N)C(=O)N[C@@H](CO)C(=O)O)NC1=O` [GPR-279, Cys-Tyr-Tyr-Asp-Asn-Ser-Ser-Ser-Val-Leu-Cys-Lys-Arg-D-tyr-Arg-Ser] (H-CYYDNSSSVLCKR[dY]RS-OH; disulfide 1-11), the amount remaining at 1 h is 89.1% and the amount remaining at 2 h stood at 77.8%.

Regarding `CC(C)C[C@@H]1NC(=O)[C@H](C(C)C)NC(=O)[C@H](CC(N)=O)NC(=O)[C@H](CO)NC(=O)[C@H](CO)NC(=O)[C@H](CC(=O)O)NC(=O)[C@H](CC(=O)O)NC(=O)[C@H](Cc2ccccc2)NC(=O)[C@H](Cc2ccc(O)cc2)NC(=O)[C@@H](N)CSSC[C@@H](C(=O)N[C@@H](CCCCN)C(=O)N[C@@H](CCCNC(=N)N)C(=O)N[C@@H](Cc2ccc(O)cc2)C(=O)N[C@@H](CCCNC(=N)N)C(=O)N[C@@H](CO)C(=O)O)NC1=O` [GPR-293, Cys-Tyr-Phe-Asp-Asp-Ser-Ser-Asn-Val-Leu-Cys-Lys-Arg-Tyr-Arg-Ser] (H-CYFDDSSNVLCKRYRS-OH; disulfide 1-11), the share remaining at 1 h came out at 3.5% and the fraction remaining at 2 h was found to be 1.6%.

For the compound `CC(C)C[C@@H]1NC(=O)[C@H](C(C)C)NC(=O)[C@H](CC(N)=O)NC(=O)[C@H](CO)NC(=O)[C@H](CO)NC(=O)[C@H](CC(=O)O)NC(=O)[C@H](CC(=O)O)NC(=O)[C@H](Cc2ccccc2)NC(=O)[C@H](Cc2ccc(O)cc2)NC(=O)[C@@H](N)CSSC[C@@H](C(=O)N[C@@H](CCCCN)C(=O)N[C@H](CCCCN)C(=O)N[C@@H](Cc2ccc(O)cc2)C(=O)N[C@@H](CCCNC(=N)N)C(=O)N[C@@H](CO)C(=O)O)NC1=O` [GPR-388, Cys-Tyr-Phe-Asp-Asp-Ser-Ser-Asn-Val-Leu-Cys-Lys-(D)lys-Tyr-Arg-Ser] (H-CYFDDSSNVLCK[dK]YRS-OH; disulfide 1-11), the fraction remaining at 1 h worked out at 77.6%, the amount remaining at 2 h stood at 64.2% and the “stability toward plasma proteolytic cleavage” value is “enhanced”.

As to `CC(C)C[C@@H]1NC(=O)[C@H](C(C)C)NC(=O)[C@H](CO)NC(=O)[C@H](CO)NC(=O)[C@H](CO)NC(=O)[C@H](CC(=O)O)NC(=O)[C@H](CC(=O)O)NC(=O)[C@H](Cc2ccc(O)cc2)NC(=O)[C@H](Cc2ccc(O)cc2)NC(=O)[C@@H](N)CSSC[C@@H](C(=O)N[C@@H](CCCCN)C(=O)N[C@@H](CCCCN)C(=O)N[C@H](Cc2ccc(O)cc2)C(=O)N[C@@H](CCCNC(=N)N)C(=O)N[C@@H](CO)C(=O)O)NC1=O` [GPR-295, Cys-Tyr-Tyr-Asp-Asp-Ser-Ser-Ser-Val-Leu-Cys-Lys-Lys-D-tyr-Arg-Ser] (H-CYYDDSSSVLCKK[dY]RS-OH; disulfide 1-11), the amount remaining at 1 h is 92.2% and the share remaining at 2 h is 94.7%.

As for `CC(C)C[C@@H]1NC(=O)[C@H](C(C)C)NC(=O)[C@H](CC(N)=O)NC(=O)[C@H](CO)NC(=O)[C@H](CO)NC(=O)[C@H](CC(=O)O)NC(=O)[C@H](CC(=O)O)NC(=O)[C@H](Cc2ccccc2)NC(=O)[C@H](Cc2ccc(O)cc2)NC(=O)[C@@H](N)CSSC[C@@H](C(=O)N[C@@H](CCCCN)C(=O)N[C@@H](CCCNC(=N)N)C(=O)N[C@H](Cc2ccc(O)cc2)C(=O)N[C@@H](CCCNC(=N)N)C(=O)N[C@@H](CO)C(=O)O)NC1=O` [GPR-397, Cys-Tyr-Phe-Asp-Asp-Ser-Ser-Asn-Val-Leu-Cys-Lys-Arg-D-tyr-Arg-Ser] (H-CYFDDSSNVLCKR[dY]RS-OH; disulfide 1-11), the amount remaining at 1 h was determined as 92% and the fraction remaining at 2 h turned out to be 89.3%.
